One test concerns plasma glucose level. The test can be described thus: Reduction in plasma glucose of a diabetic primate after a single dose (FIG. 1). The class given is in vivo, monkeys. The following applies: diabetic primate M1081, baseline glucose 6.3 mmol/L, over 6 h after a single dose, 10.4 ug/kg BW.
For a further test, the system named is 3T3-L1 adipocytes. The test can be described thus: Glucose uptake in transformed 3T3-L1 adipocytes (colourometric glucose oxidase method). The format is cell-based. As to the method: 3T3-L1 cells were transformed in culture using modified DMEM differentiation media supplemented with insulin, dexametasone and isobutylmethylxanthine and cultured for 3 days. The transformed 3T3-L1 adipocytes were then cultured for a further 5 days in modified DMEM supplemented with 10% FCS before being exposed to insulin, metformin and compounds of the present invention (see Table 1). Glucose uptake over a three (3) hour period was determined after the 5 days of treatment using a colourometric glucose oxidase method (Biovision Inc, USA).
The glucose concentration column represents the glucose concentration remaining in the media following three (3) hour exposure to the cells. The glucose uptake column represents glucose uptake from the media after a 3 hour exposure. SD represents the standard deviation. The percentage increases calculated from the relevant solvent vehicle and the P=values are reflected in the last two columns respectively.

The test system of the next test is GLP1. Particulars: blood of treated OB/IR rats; other studies in our laboratory (Louw et al. 2008); cited from earlier work.
Another test has as its system gene expression in liver. The test can be described thus: Quantitative real-time PCR gene expression in liver of obese, insulin resistant Wistar rats. The class given is in vivo. How it is done:
Three week old male rats were fed a high fat diet for 24 weeks to induce obesity and insulin resistance. Thereafter, rats were treated with 0.3 mg/kg Rx-1 daily for two weeks, and then with 3 mg/kg Rx-1 daily for seven days. Fasting glucose concentrations were measured before treatment, after two weeks treatment with 0.3 mg/kg Rx-1 and then again after seven days treatment with 3 mg/kg Rx-1. After treatment with 3 mg/kg Rx-1 rats were terminated and liver, muscle and pancreas biopsies were taken. Quantitative real-time PCR was used to measure the expression of 12 genes in liver and muscle samples, and ten genes in pancreas samples.
Rats were housed at the Primate Unit (Medical Research Council, South Africa). Rat management including feeding, glucose measurements and terminations, were done according to standard operating procedures (Diabetes Discovery Platform, Medical Research Council). Briefly, three week old rats were fed a high fat diet for 24 weeks to induce T2D. The study group consisted of thirteen rats, eight rats were treated by daily gavage with 0.3 mg/kg Rx-1 for two weeks, and then with 3 mg/kg Rx-1 for seven days. Five rats were used as controls and were treated with water only for three weeks. Rats were terminated after treatment and liver, muscle and pancreas tissue harvested and stored in RNalater (Ambion) as recommended by the manufacturer. The study was approved by the ethics committee of the Medical Research Council of South Africa.
Tissue was removed from RNAlater, weighed (80-100 mg), and placed in a 2 ml microfuge tube containing 1 ml of Trizol (Invitrogen) and a stainless steel bead (Qiagen). Tissue was homogenised in the TissueLyser (Qiagen) at 25 Hz for 6 min, centrifuged at 12,000 g for 10 min at 4° C., and the supernatant removed and incubated at room temperature for 5 min. Thereafter, 0.2 ml of chloroform (Sigma) was added, shaken vigorously for 15 sec, and then incubated at room temperature for 3 min with occasional mixing. Samples were centrifuged 12,000 g for 15 min at 4° C. and the aqueous phase was transferred to a new tube. RNA was precipitated by adding 0.5 ml isopropanol, mixed well for 30 sec, and placed at −20° C. overnight. The following day, tubes were centrifuged at 12,000 g for 20 min at 4° C. The pellet was washed with 1 ml of 75% ethanol and centrifuged at 12,000 g for 15 min at 4° C. The wash step was repeated. After the second wash, the pellet was air dried by placing tubes with their lids open (on ice) in a PCR cabinet for 2 hours. Excess liquid was removed by blotting tubes on paper towel occasionally during this incubation. The pellet was resuspended by adding 100 μl RNase-free water and incubating at 55° C. for 10 min. RNA concentrations were determined using a spectrophotometer (Nanodrop Technologies). Thereafter, RNA was purified with the RNeasy Mini Kit according to the manufacturer's instructions (Qiagen) and concentrations again determined with the Nanodrop. Genomic DNA was removed by treating RNA with Turbo DNA-free DNase (Ambion) and incubating at 37° C. for 90 min according to the manufacturer's instructions, but using 1.5× the units of DNase and incubation time recommended by the kit. In brief, 20 μg RNA was incubated with 1.5 μl (3 units) DNase, 5 μl DNase buffer, and nuclease-free water in a final reaction volume of 50 μl for 45 min at 37° C., thereafter, another 3 units of DNase was added and incubated for a further 45 min. DNase was inactivated by adding ⅕ volume (10 μl) of the DNase inactivation reagent supplied with the kit. Reactions were incubated at room temperature for 2 min, and centrifuged at 14,000 rpm for 1.5 min. The supernatant was removed and RNA concentrations were measured using the Nanodrop. The quality of the DNase-treated RNA was determined with the RNA 6000 Nano kit using the 2100 Bioanalyser Lab-on-a-Chip system as recommended by the manufacturers (Agilent technologies). […]
For orientation: Quantitative PCR measures a nucleic acid by following its amplification.

Test [1] deals with glucose stimulated insulin secretion. In words: Glucose stimulated insulin secretion rate AUC in prediabetic vervet monkeys (FIG. 2). The class given is in vivo. The following applies: versus untreated. How it is done:
Prediabetic vervet monkeys (fasting plasma glucose levels between 4.0 and 5.5 mM) were treated with 10 ug/kg RX-1 3 times daily with meals for 7 days. Blood samples were collected following 1.75 g/kg oral glucose stimulation at 0, 5, 10, 15, 30, 60, 90, 120 and 180 minutes. AUC values calculated mean glucose stimulated insulin secretion values over the time interval 0-120 min. Four monkeys were used in each group (untreated, RX1-treated).

Setting [2] is: liver, 0.3 mg/kg two weeks then 3 mg/kg seven days.
Setting [3] is: liver, not statistically significant.

For `O=C(O)/C(=C/c1ccccc1)O[C@@H]1O[C@H](CO)[C@@H](O)[C@H](O)[C@H]1O` [RX-1, 3-Phenyl-2-(3,4,5-trihydroxy-6-hydroxymethyl-tetrahydro-pyran-2-yloxy)-acrylic acid], the “reduction in plasma glucose level” value in the test on plasma glucose level was “reduce the blood sugar of monkeys for prolonged periods of time”. Besides, the “glucose uptake over a 3 hour culture period” value in the test on 3T3-L1 adipocytes (3T3-L1 adipose cells) is “significantly increased”. In addition, the Glucose conc. in the test with 3T3-L1 adipocytes (glucose remaining in the media after 3 hour exposure to the cells, media containing 8 mM glucose) is given as 3.19 nM/ul. In addition, the “Glucose Uptake” value with 3T3-L1 adipocytes (glucose uptake from the media after 3 hour exposure, media containing 8 mM glucose) was 2.86 nM/ul. Besides, the “% uptake” value with 3T3-L1 adipocytes (relative to DMSO vehicle = 100.00, 3 hour glucose uptake) is 122.64%. In the test on GLP1, the “circulating GLP1 levels” value was “increased”. Besides, the Pi3k expression result with gene expression in liver (liver only, not significant) was “upregulated”. Also, the Gck gene expression entry in the test on gene expression in liver (liver, 0.3 mg/kg daily two weeks then 3 mg/kg daily seven days, not statistically significant) was “increased”. Moreover, in the test on gene expression in liver (setting [2]), the Glut1 expression result is “increased”, the Glut2 expression result is reported as “increased”, the IR gene expression entry was “upregulated” and the “IRS1 mRNA levels” value is “unchanged”. In the test on gene expression in liver (setting [2]), the IRS2 gene expression entry is “increased” and the PPARα expression result is “significantly upregulated”. Besides, in the test on gene expression in liver (setting [3]), the GcgR gene expression result was “increased” and the “SOCS1 mRNA expression” value is recorded as “increased”. In the test with gene expression in liver (liver, statistically significant), the “SOCS3 mRNA expression” value was “increased”. Also, the glycaemic control entry in test [1] (10 ug/kg 3 times daily for 7 days) was “better glycaemic control”. Further, the “decrease of glucose stimulated insulin secretion (AUC 0-120 min)” value in test [1] (10 ug/kg 3 times daily with meals for 7 days, 1.75 g/kg oral glucose stimulation, FIG. 2) is 46%.

The record behind these values is US10174065B2, “Antidiabetic enolic glucoside of phenylpyruvic acid” (ZADEC APS, priority 2010, dated 2019).
